Results from article PMC6062979 (BMC Complementary and Alternative Medicine, 2018).
≈ marks a conversion by molar mass, not a printed value. Entries after “also recorded” stand apart in the source; their conditions may differ.

Tests used:
T. cruzi Epi [1] = experiment: Anti-parasitic activity on T. cruzi epimastigotes (Trypan Blue differential count); conditions: for IC50: Trypanosoma cruzi, read-out: Epi IC50 ± SD, epimastigotes, 72 h; for IC50 / Epi IC50 ± SD: 72 h; for Epi SI (CC50/IC50): Vero CC50 / epimastigote IC50; for Epi IC50 ± SD: epimastigotes
Protocol: (§1) Vero lineage derived from African Green Monkey Kidney (Vero, ATCC CCL-81) was used for selectivity index determination and for Tryp and Amas production. These cells were grown on DMEM (Life Technology, CA, USA) media, pH: 7.4; supplemented with 10% of inactivated Fetal Bovine Serum (FBSi), 1000 U/mL of penicillin, and 100 μg/mL of streptomycin; and incubated at 37 °C with 90% humidity and a 5% CO2 atmosphere. Epi of T. cruzi I (TcI) SYLVIO-X10 strain, were donated by Dr. Marcos López-Casillas, from Fundación Cardiovascular de Colombia and grown in LIT medium (Merck) supplemented with 10% FBSi, and incubated at 28 °C. The Trypomastigotes Derived from Cells (TDC) were obtained by infection of a confluent monolayer of Vero cells with 12 day-old stationary growth phase Epi and incubated under the same conditions described above for Vero cells.
(§2) T. cruzi Epi (5 × 10^5 Epi/mL) and TDC (5 × 10^5 cells/mL) in the exponential growth phase were plated in a 96-well standard microplate in LIT medium (at 28 °C) and in D-MEM medium (at 37 °C in a 5% CO2 atmosphere), respectively. Both cultures were supplemented with 10% FBSi. For the trypanocidal assays, the EOs or their terpenes were added at varying concentrations (3.7 to 100 μg/mL) and incubated at the same culture conditions for 72 (Epi) or 24 h (Tryp). The growth inhibition was estimated by light microscopy through a differential count using the Trypan Blue (Gibco) dye exclusion technique. […] For Amas assays, a monolayer of Vero cells (3 × 10^5 cel/mL) was infected with TDC in a 1:3 cell:parasite ratio and incubated for 24 h until Amas development occurred. Then, these intracellular forms were exposed for 120 h to EOs or terpenes in a treatment applied in two doses (at 0 and 48 h), under the same conditions described above. Growth inhibition analysis was assessed in Giemsa-stained films using light microscopy to determine the infected and uninfected cell percentage in a total of 300 cells. Cells without treatment and those treated with BNZ were used as negative and positive controls, respectively.

T. cruzi Tryp (TDC) = experiment: Anti-parasitic activity on T. cruzi trypomastigotes derived from cells (Trypan Blue differential count); conditions: for IC50: Trypanosoma cruzi, read-out: Tryp IC50 SD, trypomastigotes, 24 h; for IC50 / Tryp IC50 SD: 24 h; for Tryp SI (CC50/IC50): Vero CC50 / trypomastigote IC50; for Tryp IC50 SD: trypomastigotes
Protocol: as §1, §2

T. cruzi Amas = experiment: Anti-parasitic activity on intracellular T. cruzi amastigotes in Vero cells (Giemsa count); assay type: cell-based, Trypanosoma cruzi; conditions: for IC50: Trypanosoma cruzi, Vero, read-out: Amas IC50 ± SD; for IC50 / Amas IC50 ± SD: intracellular amastigotes in Vero, 120 h, two doses (0 and 48 h); for Amas SI (CC50/IC50): Vero CC50 / amastigote IC50
Protocol: as §1, §2

[2] = Cytotoxic activity on Vero cells (WST-1); conditions: African green monkey, pH 7.4
Protocol: as §1
(§3) Vero cells (3 × 10^5 cel/mL) were incubated at 37 °C in a 5% CO2 atmosphere and at 95% humidity for 24 h to ensure the formation of a confluent monolayer. After this time, the cells were treated with the EOs or their terpenes in four different concentrations (11.1, 33.3, 100, and 300 μg/mL). Thereafter, the lineages were incubated for 70 h at 37 °C in a 5% CO2 atmosphere and re-incubated 2 more hours with WST-1 (Roche, Mannheim, Germany), after which Optical Density (OD) measurements were analyzed by spectrophotometry. The cytotoxicity percentage was calculated using [(OD450nm Control – OD450nm treatment) / […])] × 100. The results were expressed as Cytotoxic Concentration 50 (CC50).

T. cruzi Epi [3] = experiment: Flow cytometry Annexin V / SYTOX Green cell death analysis on epimastigotes; assay type: cell-based, Trypanosoma cruzi; conditions: 48 h at 2xIC50, flow cytometry
Protocol: For cell death characterization, an Annexin V/Dead with SYTOX® Green (Molecular Probes, Invitrogen) kit was used following the procedure specified in the manufacturer’s instructions. The phosphatidylserine externalization was determined by employing a recombinant Annexin V conjugated to the Orange Fluorescent phycobiliprotein R-PE, and to the necrotic cells using SYTOX™ Green nucleic acid stain. Briefly, 1 × 10^6 Epi per mL were treated with 2xIC50 for 48 h, washed, and suspended in 1X Annexin-Binding Buffer.

T. cruzi Epi [4] = experiment: Morphological analysis by optical and fluorescent microscopy (DIC, DAPI, MitoTracker); assay type: cell-based, Trypanosoma cruzi; conditions: 2xIC50, 48 h
Protocol: (§4) The death phenotype was analyzed by optical and fluorescent microscopy using phase contrast (fluorescence microscopy, Nikon Eclipse Ni). […] Determination of an oligonucleosomal-DNA ladder in treated parasites was also evaluated through DNA gel electrophoresis. Evaluation of the mitochondrial potential membrane in living parasites was performed with MitoTracker Red CMXRos (579 nm/599 nm […] wavelength). As a positive and negative apoptosis control, a 15 day-old Epi culture and an untreated fresh parasite culture were used, respectively.

Vero cells = experiment: Cytotoxic activity on Vero cells (WST-1); conditions: Vero cells, 72 h, WST-1
Protocol: as §1, §3

T. cruzi Epi [5] = experiment: DNA fragmentation by TUNEL assay on epimastigotes; assay type: cell-based, Trypanosoma cruzi; conditions: for DNA fragmentation (positive TUNEL) percentage: Epi, 48 h, 2xIC50; for TUNEL assay result: treated parasites
Protocol: as §4

[6] = Vero cells (ATCC CCL-81), kidney

CC(C)=CCCC(C)=CC=O (mixture of isomers) [Citral, citral]
IC50 (T. cruzi Epi [1]): 37.2 µg/mL | Epi SI (CC50/IC50) (T. cruzi Epi [1]): 2.4 | Epi IC50 ± SD (T. cruzi Epi [1]): 37 ± 0.7 µg/mL | IC50 (T. cruzi Tryp (TDC)): 20.8 µg/mL | Tryp SI (CC50/IC50) (T. cruzi Tryp (TDC)): 4.3 | Tryp IC50 SD (T. cruzi Tryp (TDC)): 21 ± 1 µg/mL | IC50 (T. cruzi Amas): 49 ± 2.3 µg/mL | Amas SI (CC50/IC50) (T. cruzi Amas): 1.8 | CC50 at 72 h [2, 6]: 90 ± 3.9 µg/mL | percentage of cell death (T. cruzi Epi [3]): 78.4% | morphological changes of treated parasites (T. cruzi Epi [4]): typical characteristics of apoptosis

O=C(Cn1ccnc1[N+](=O)[O-])NCc1ccccc1 [BNZ, Benznidazole, reference compound]
IC50 (T. cruzi Epi [1]): 17 ± 0.9 µg/mL (≈ 65.3 µM) | Epi SI (CC50/IC50) (T. cruzi Epi [1]): 8.2 | IC50 (T. cruzi Tryp (TDC)): 1.2 ± 0.1 µg/mL (≈ 4.61 µM) | Tryp SI (CC50/IC50) (T. cruzi Tryp (TDC)): 116.3 | IC50 (T. cruzi Amas): 6 ± 0.9 µg/mL (≈ 23.1 µM) | Amas SI (CC50/IC50) (T. cruzi Amas): 22.4 | Amas IC50 ± SD (T. cruzi Amas): 6.2 ± 0.9 µg/mL | CC50 at 72 h [2, 6]: 139 ± 2.3 µg/mL (≈ 534 µM) | morphological changes of treated parasites (T. cruzi Epi [4]): cellular edema and loss of cellular membrane integrity, but with conserved mitochondrial energetic potential

C=C(C)[C@H]1CC=C(C)C(=O)C1 [Carvone, S (+) carvone]
IC50 (T. cruzi Epi [1]): 177 ± 7.9 µg/mL (≈ 1180 µM) | Epi SI (CC50/IC50) (T. cruzi Epi [1]): 1.4 | IC50 (T. cruzi Tryp (TDC)): 124 ± 8 µg/mL (≈ 825 µM) | Tryp SI (CC50/IC50) (T. cruzi Tryp (TDC)): 1.9 | IC50 (T. cruzi Amas): > 100 µg/mL | CC50 at 72 h [2]: 240 ± 4.1 µg/mL (≈ 1600 µM)

C=C(C)[C@H]1CC=C(C)CC1 [Limonene, D (+) limonene]
Tryp IC50 SD (T. cruzi Tryp (TDC)): 9 ± 0.8 µg/mL | Amas IC50 ± SD (T. cruzi Amas): 29 ± 0.7 µg/mL | Amas IC50 ± SD (T. cruzi Amas; listed as limonene): 28.7 µg/mL | Vero CC50 ± SD (Vero cells): 297 ± 2.4 µg/mL | DNA fragmentation (positive TUNEL) percentage (T. cruzi Epi [5]): 94% | TUNEL assay result (T. cruzi Epi [5]): positive | percentage of cell death (T. cruzi Epi [3]): 89.2% | morphological changes of treated parasites (T. cruzi Epi [4]): typical characteristics of apoptosis

(−) caryophyllene oxide [CarOx]
Epi SI (CC50/IC50) (T. cruzi Epi [1]): 4.3 | cell death percentage (CDP) on Epi (T. cruzi Epi [1]; at 50 μg/mL): 78 ± 2.3% | Epi IC50 ± SD (T. cruzi Epi [1]): 30 ± 1.7 µg/mL | Epi IC50 ± SD (T. cruzi Epi [1]; listed as caryophyllene oxide): 29.8 µg/mL | Tryp SI (CC50/IC50) (T. cruzi Tryp (TDC)): 5.9 | cell death percentage (CDP) on Tryp (T. cruzi Tryp (TDC); at 50 μg/mL): 98 ± 0.5% | Tryp IC50 SD (T. cruzi Tryp (TDC)): 22 ± 0.3 µg/mL | Tryp IC50 SD (T. cruzi Tryp (TDC); listed as caryophyllene oxide): 21.6 µg/mL | Amas SI (CC50/IC50) (T. cruzi Amas): 2.7 | Amas IC50 ± SD (T. cruzi Amas): 47 ± 1.0 µg/mL | Amas IC50 ± SD (T. cruzi Amas; listed as caryophyllene oxide): 47.4 µg/mL | Vero CC50 ± SD (Vero cells): 128 ± 4.2 µg/mL | DNA fragmentation (positive TUNEL) percentage (T. cruzi Epi [5]): 99% | TUNEL assay result (T. cruzi Epi [5]): positive | percentage of cell death (T. cruzi Epi [3]): 95.7% | morphological changes of treated parasites (T. cruzi Epi [4]): flagellum to be lost; also recorded: typical characteristics of apoptosis
